The target in one assay is T1, ALK5 kinase (Homo sapiens, UniProt P36897).
T1 sequence (P36897 34-503): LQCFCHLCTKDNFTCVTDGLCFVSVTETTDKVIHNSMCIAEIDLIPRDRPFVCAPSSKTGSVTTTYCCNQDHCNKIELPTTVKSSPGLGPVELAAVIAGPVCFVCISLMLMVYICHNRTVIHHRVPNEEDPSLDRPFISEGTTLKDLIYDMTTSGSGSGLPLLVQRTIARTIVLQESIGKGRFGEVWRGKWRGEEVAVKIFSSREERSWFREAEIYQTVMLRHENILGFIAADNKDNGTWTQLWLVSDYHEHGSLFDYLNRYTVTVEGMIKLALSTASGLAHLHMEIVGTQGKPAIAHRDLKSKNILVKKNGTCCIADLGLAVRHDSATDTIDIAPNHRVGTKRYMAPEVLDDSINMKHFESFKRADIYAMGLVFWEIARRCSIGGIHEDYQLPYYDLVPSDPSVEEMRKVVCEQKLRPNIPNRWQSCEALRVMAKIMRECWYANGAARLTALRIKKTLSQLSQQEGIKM
The assay can be described thus: LanthaScreen Eu Kinase Binding Assay. Conditions: Kinase Tracer 178, Eu-anti-GST Antibody, read-out: IC50 Enzyme. An outline of the steps:
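Tracer-displacement TR-FRET: after 30 min RT compound–kinase preincubation, Eu-labelled anti-GST antibody plus Kinase Tracer 178 were incubated 60 min at RT. Binding was read as a lower 665 nm/615 nm emission ratio (excitation 340 nm).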

A further assay concerns TGF-β signaling. The assay can be described thus: Assay for evaluating cellular inhibition of TGF-β signaling, 4T1 (SBE-luc2P) luciferase reporter. To be noted: Mus musculus, 4T1, 4T1 (SBE-luc2P) transient pool, 0.2% FBS, 2 h pre-treatment, TGF-β1 2 ng/mL 24 h; read-out: IC50 4T1 Cell. The assay is classed as cell-based. In outline:
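Luminescence from SMAD-binding-element luciferase was measured after 24 h of 2 ng/mL TGF-β1 at 37 °C, following 2 h compound pre-treatment. HEK293 stable reporter cells were used at 2.5×10^4/well in 0.5% FBS (~80% confluent); the 4T1 SBE-luc2P transient pool at 6×10^3/well in 0.2% FBS (~60% confluent).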

As a reminder, the IC50 is the concentration that gives 50% inhibition. As to `CCc1nc(-c2ccccc2)c(Oc2ccnc(Nc3cccc(C(C)(C)O)c3)c2)s1` [A-182, 2-(3-((4-((2-Ethyl-4-phenylthiazol-5-yl)oxy)pyridin-2-yl)amino)phenyl)propan-2-ol], the results for the IC50 on ALK5 kinase and in the assay on TGF-β signaling were under 100 nM and over 100 nM, respectively.

Turning to `CCc1nc(-c2cccc(C)n2)c(Oc2ccnc(Nc3cccc(C(=O)NC)n3)c2)s1` [A-256, 6-((4-((2-Ethyl-4-(6-methylpyridin-2-yl)thiazol-5-yl)oxy)pyridin-2-yl)amino)-N-methylpicolinamide], the IC50 at ALK5 kinase and in the assay on TGF-β signaling was under 100 nM each time.

As for `CNc1nc(-c2cccc(C)n2)c(Oc2ccnc(Nc3cccc(S(N)(=O)=O)c3)c2)s1` [A-292, 3-((4-((2-(Methylamino)-4-(6-methylpyridin-2-yl)thiazol-5-yl)oxy)pyridin-2-yl)amino)benzenesulfonamide], the half-maximal inhibitory concentration (IC50) on ALK5 kinase and with TGF-β signaling was under 100 nM each time.

Consider `NS(=O)(=O)c1cccc(Nc2cc(Oc3sc(C4CC4)nc3-c3ccccc3)ccn2)c1` [A-116, 3-((4-((2-Cyclopropyl-4-phenylthiazol-5-yl)oxy)pyridin-2-yl)amino)benzenesulfonamide], for which the half-inhibitory concentration (IC50) at ALK5 kinase and in the assay on TGF-β signaling was under 100 nM throughout.

Turning to `Cc1cccc(-c2nc(N(C)C)sc2Oc2ccnc(Nc3ccc(C(=O)O)cn3)c2)n1` [A-285, 6-((4-((2-(Dimethylamino)-4-(6-methylpyridin-2-yl)thiazol-5-yl)oxy)pyridin-2-yl)amino)nicotinic acid], the IC50 at ALK5 kinase and in the assay on TGF-β signaling was under 100 nM each time.

As to `CCc1nc(-c2ccccc2)c(Oc2ccnc(Nc3ccc(C(=O)NC)cn3)c2)s1` [A-193, 6-((4-((2-Ethyl-4-phenylthiazol-5-yl)oxy)pyridin-2-yl)amino)-N-methylnicotinamide], the IC50 at ALK5 kinase and in the assay with TGF-β signaling was under 100 nM throughout.

For `Cc1nc(-c2ccccc2)c(Oc2ccnc(Nc3cccc(CCC#N)c3)c2)s1` [A-113, 3-(3-((4-((2-Methyl-4-phenylthiazol-5-yl)oxy)pyridin-2-yl)amino)phenyl)propanenitrile], the IC50 on ALK5 kinase and with TGF-β signaling was under 100 nM each time.

In the case of `COC(=O)c1cccc(Nc2cc(Oc3sc(N)nc3-c3ccccc3)ccn2)c1` [A-3, Methyl 3-((4-((2-amino-4-phenylthiazol-5-yl)oxy)pyridin-2-yl)amino)benzoate], the IC50 at ALK5 kinase is under 100 nM; in the assay with TGF-β signaling, over 100 nM.

With `CCc1nc(-c2ccccc2)c(Oc2ccnc(Nc3ccc(C(N)=O)cn3)c2)s1` [A-190, 6-((4-((2-Ethyl-4-phenylthiazol-5-yl)oxy)pyridin-2-yl)amino)nicotinamide], the half-maximal inhibitory concentration (IC50) at ALK5 kinase and with TGF-β signaling was under 100 nM each time.

On to `NS(=O)(=O)c1ccc(Nc2cc(Oc3sc(C4CC4)nc3-c3ccccc3)ccn2)cc1` [A-118, 4-((4-((2-Cyclopropyl-4-phenylthiazol-5-yl)oxy)pyridin-2-yl)amino)benzenesulfonamide], for which the results for the IC50 at ALK5 kinase and in the assay with TGF-β signaling were under 100 nM and over 100 nM, respectively.

Regarding `Cc1nc(-c2ccccc2)c(Oc2ccnc(Nc3ccc(C(=O)O)cc3)c2)s1` [A-110, 4-((4-((2-Methyl-4-phenylthiazol-5-yl)oxy)pyridin-2-yl)amino)benzoic acid], the IC50 on ALK5 kinase was under 100 nM; in the assay on TGF-β signaling it was over 100 nM.

As to `CC(C)c1nc(-c2ccccc2)c(Oc2ccnc(Nc3ccc(C(=O)O)cn3)c2)s1` [A-232, 6-((4-((2-Isopropyl-4-phenylthiazol-5-yl)oxy)pyridin-2-yl)amino)nicotinic acid], the half-maximal inhibitory concentration (IC50) on ALK5 kinase and with TGF-β signaling was under 100 nM in each case.

For `CCc1nc(-c2ccccc2)c(Oc2ccnc(Nc3cccc(C(=O)O)c3)c2)s1` [A-194, 3-((4-((2-Ethyl-4-phenylthiazol-5-yl)oxy)pyridin-2-yl)amino)benzoic acid], the 50% inhibitory concentration (IC50) at ALK5 kinase was under 100 nM; in the assay with TGF-β signaling, over 100 nM.

As to `CCc1nc(-c2ccccc2)c(Oc2ccnc(Nc3ccc(C(N)=O)cc3)c2)s1` [A-185, 4-((4-((2-Ethyl-4-phenylthiazol-5-yl)oxy)pyridin-2-yl)amino)benzamide], the concentration for half-maximal inhibition (IC50) at ALK5 kinase was under 100 nM; in the assay on TGF-β signaling, over 100 nM.

For `O=C(O)c1ccc(Nc2cc(Oc3sc(C4CCCC4)nc3-c3ccccc3)ccn2)nc1` [A-174, 6-((4-((2-Cyclopentyl-4-phenylthiazol-5-yl)oxy)pyridin-2-yl)amino)nicotinic acid], the IC50 was under 100 nM at ALK5 kinase and over 100 nM in the assay with TGF-β signaling.

In the case of `COc1nc(-c2ccccc2)c(Oc2ccnc(Nc3cccc(C(N)=O)c3)c2)s1` [A-143, 3-((4-((2-Methoxy-4-phenylthiazol-5-yl)oxy)pyridin-2-yl)amino)benzamide], the IC50 at ALK5 kinase was under 100 nM; in the assay on TGF-β signaling, over 100 nM.

Regarding `O=C(O)c1ccc(Nc2cc(Oc3sc(C4CCCCC4)nc3-c3ccccc3)ccn2)nc1` [A-178, 6-((4-((2-cyclohexyl-4-phenylthiazol-5-yl)oxy)pyridin-2-yl)amino)nicotinic acid], the IC50 at ALK5 kinase and in the assay on TGF-β signaling was over 100 nM throughout.

As for `CC(C)c1nc(-c2ccccc2)c(Oc2ccnc(Nc3cccc(C(N)=O)c3)c2)s1` [A-220, 3-((4-((2-Isopropyl-4-phenylthiazol-5-yl)oxy)pyridin-2-yl)amino)benzamide], the figures for the half-inhibitory concentration (IC50) at ALK5 kinase and in the assay on TGF-β signaling were under 100 nM and over 100 nM, respectively.

On to `CN(C)c1nc(-c2ccccc2)c(Oc2ccnc(Nc3cccc(S(N)(=O)=O)c3)c2)s1` [A-154, 3-((4-((2-(Dimethylamino)-4-phenylthiazol-5-yl)oxy)pyridin-2-yl)amino)benzenesulfonamide], for which the IC50 on ALK5 kinase was under 100 nM; in the assay with TGF-β signaling, over 100 nM.

Turning to `CCc1nc(-c2cccc(C)n2)c(Oc2ccnc(Nc3cc(C(=O)NC)ccn3)c2)s1` [A-268, 2-((4-((2-Ethyl-4-(6-methylpyridin-2-yl)thiazol-5-yl)oxy)pyridin-2-yl)amino)-N-methylisonicotinamide], the half-inhibitory concentration (IC50) on ALK5 kinase and with TGF-β signaling was under 100 nM throughout.

With `Cc1nc(-c2ccccc2)c(Oc2ccnc(Nc3cccc(S(=O)(=O)O)c3)c2)s1` [A-68, 3-((4-((2-Methyl-4-phenylthiazol-5-yl)oxy)pyridin-2-yl)amino)benzenesulfonic acid], the half-inhibitory concentration (IC50) on ALK5 kinase was under 100 nM; in the assay with TGF-β signaling, over 100 nM.

Consider `NS(=O)(=O)c1cccc(Nc2cc(Oc3sc(NC4CC4)nc3-c3ccccc3)ccn2)c1` [A-45, 3-((4-((2-(Cyclopropylamino)-4-phenylthiazol-5-yl)oxy)pyridin-2-yl)amino)benzenesulfonamide], for which the results for the IC50 on ALK5 kinase and in the assay with TGF-β signaling were under 100 nM and over 100 nM, respectively.

As to `Cc1nc(-c2ccccc2)c(Oc2ccnc(Nc3ccc(C(N)=O)cc3)c2)s1` [A-63], the concentration for half-maximal inhibition (IC50) on ALK5 kinase was under 100 nM; in the assay on TGF-β signaling, over 100 nM.

`NC(=O)c1ccc(Nc2cc(Oc3sc(C(F)(F)F)nc3-c3ccccc3)ccn2)nc1` [A-146, 6-((4-((4-Phenyl-2-(trifluoromethyl)thiazol-5-yl)oxy)pyridin-2-yl)amino)nicotinamide]: the IC50 on ALK5 kinase and in the assay on TGF-β signaling was under 100 nM each time.

For `CCc1nc(-c2cccc(C)n2)c(Oc2ccnc(Nc3cc(C(N)=O)ccn3)c2)s1` [A-267, 2-((4-((2-Ethyl-4-(6-methylpyridin-2-yl)thiazol-5-yl)oxy)pyridin-2-yl)amino)isonicotinamide], the half-maximal inhibitory concentration (IC50) at ALK5 kinase and in the assay with TGF-β signaling was under 100 nM throughout.

(Values after US20250206730A1 (AUTOTELIC BIO INC., priority 2022, published 2025).)
